Results on 50 molecules are retold here after ChEMBL document CHEMBL5661955, “ASAP - In vitro cytotoxicity” (2024).

A word on the CC50: it is the concentration giving 50% cytotoxicity.

“And” between values parts separate entries of the source, which are not always exact repeats. Identical values can stand only once.

The nature of data set [1]: Functional assay to measure dose dependent changes in cell viability from drug treatment in Vero E6 miRFP670 cells (cotreated with P-gp inhibitor, CP100356) that are infected with Dengue virus type 2 New Guinea C. […] Cytotoxicity is reported via via analysis of DAPI count using high-content imager. The assay has been performed by KU Leuven. The format is toxicity, cell-based, Vero C1008. Conditions: chlorocebus sabaeus, with CP100356 (P-gp inhibitor, concentration not stated); p-gp concentration 500 nM.

The nature of data set [2]: Functional CPE-based assay to measure dose dependent changes in cell viability from drug treatment in Vero E6 miRFP670 cells. Cells are treated with antiviral candidates that have been serially diluted. Cytotoxicity is reported via analysis of MTS assays in uninfected cells. The assay has been performed by KU Leuven. Conditions: chlorocebus sabaeus, Vero E6 miRFP670 cells. The format is toxicity, Vero C1008. (Tetrazolium dyes change colour on reduction, which living cells bring about.)

A short description of data set [3]: Functional metabolic assay to measure dose dependent changes in cell viability from drug treatment in Vero E6/TMPRSS2 cells (cotreated with P-gp inhibitor, Elacridar). […] Cytotoxicity is reported via measuring absorbance and analysis of MTT/MTS assays in uninfected cells. The assay has been performed by Icahn School of Medicine at Mount Sinai. Conditions: chlorocebus sabaeus, p-gp concentration 2 uM. Type of data set: toxicity, cell-based, VeroE6/TMPRSS2.

Where [4] appears, read: Vero E6/TMPRSS2 cells, with Elacridar (P-gp inhibitor, concentration not stated).

For `NCc1cccc(NC(=O)[C@@H](NC(=O)OCc2ccccc2)c2ccc(-c3cc4cccnc4s3)cc2)c1`, the CC50 in data set [1] is greater than 50 µM; in data set [2], 34.7 µM.
On the same counts, the results for `NCc1cc(/C=C/C(=O)O)cc(NC(=O)c2cc(Cl)cc(NC(=O)OCc3ccccc3)c2)c1` are 15.7 µM and greater than 50 µM.
As for `COc1cccc(-c2ccc([C@@H](NC(=O)OCc3ccccc3)C(=O)Nc3cccc(CN)c3)cc2)c1`, the CC50 was 23.1 µM in data set [1] and 6.76 µM in data set [2].
In the case of `CC(C)c1nc2c(C(=O)Nc3ccc4c(c3)CNC4)cc(Br)cc2[nH]1`, the figures for the CC50 in data set [3] (setting [4]), in data set [1] and in data set [2] were 19.2 µM, 3.63 µM and 2.65 µM, respectively. Also, in data set [3] (veroe6/tmprss2), the CC10 stood at 0.476 µM.
On the same counts, the results for `CCOc1cccc(-c2ccc(S(=O)(=O)Nc3ccc(Cl)cc3C(=O)O)cc2C)c1` are greater than 50 µM, 21.9 µM, 36.1 µM and 0.027 µM.
As to `COC(=O)c1cc(NC(=O)c2cc(Cl)cc(NC(=O)OCc3ccccc3)c2)cc(-c2nnn[nH]2)c1`, the CC50 in data set [3] (setting [4]) was greater than 50 µM; in data set [2], 35.2 µM. For the same molecule, the CC10 in data set [3] (veroe6/tmprss2) was greater than 50 µM.
On to `CNC(=O)[C@H](Nc1cc(CN)cc(C(=O)O)c1)c1cc(Cl)cc(C2CC2)c1`, for which the CC50 in data set [1] and in data set [2] was greater than 50 µM in each case.
Take `Cn1ncc2c(C(=O)Nc3ccc4c(c3)CNC4)cc(Br)cc21`: the CC50 in data set [1] and in data set [2] was greater than 50 µM each time.
Turning to `O=C(O)c1cc(Cl)c(F)cc1S(=O)(=O)Nc1ccc(Oc2ccccc2Cl)cc1`, the CC50 in data set [1] and in data set [2] was greater than 50 µM each time.
Turning to `CC(C)OC(=O)Nc1cc(Cl)cc(C(=O)Nc2cccc(CN)c2)c1`, the results for the CC50 in data set [3] (setting [4]), in data set [1] and in data set [2] were greater than 50 µM, 4.99 µM and 20.5 µM, respectively. Moreover, the CC10 in data set [3] (veroe6/tmprss2) is less than 0.023 µM.
On the same counts, the results for `Clc1ccc2[nH]cc(Cc3ccc(-c4nn[nH]n4)cc3)c2c1` are greater than 50 µM, 19.3 µM, greater than 50 µM and greater than 50 µM.
For `O=C(Nc1ccc2c(c1)CNC2)c1cccc2[nH]ncc12`, the CC50 is greater than 50 µM in data set [3] (setting [4]), 15.4 µM in data set [1] and 11.5 µM in data set [2]. Further, the CC10 in data set [3] (veroe6/tmprss2) was greater than 50 µM.
For `O=C(O)COc1cccc(NC(=O)c2cc(Cl)cc(NC(=O)OCc3ccccc3)c2)c1`, the CC50 in data set [3] (setting [4]) and in data set [2] was greater than 50 µM each time. In addition, in data set [3] (veroe6/tmprss2), the CC10 is greater than 50 µM.
As for `C[C@@]1(c2cccc(CN)c2)C[C@H]1c1cc(Cl)cc(NC(=O)OCc2ccccc2)c1`, the results for the CC50 in data set [1] and in data set [2] were 6.46 µM and 2.61 µM, respectively.
On the same counts, the results for `C=C1C[C@H](c2cc(Cl)cc(NC(=O)OCc3ccccc3)c2)[C@@H](c2cccc(-c3nn[nH]n3)c2)C1` are 7.56 µM and 5.72 µM.
For `O=C(NS(=O)(=O)C1CC1)c1cc(Cl)ccc1NS(=O)(=O)c1ccc(Oc2ccccc2Cl)cc1`, the 50% cytotoxic concentration (CC50) in data set [1] and in data set [2] was greater than 50 µM each time.
As to `CC(C)(C)NC(=O)[C@H](Nc1cccc(-c2nn[nH]n2)c1)c1cc(Cl)cc(NC(=O)OCc2ccccc2)c1`, the CC50 in data set [3] (setting [4]) is greater than 50 µM; in data set [1], 2.78 µM; in data set [2], greater than 50 µM. The CC10 in data set [3] (veroe6/tmprss2) is greater than 50 µM.
Consider `N[C@H]1Cc2ccc(NC(=O)c3cc(Cl)cc(NC(=O)OCc4ccccc4)c3)cc2C1`, for which the CC50 in data set [1] came out at 4.15 µM; in data set [2] it was 2.82 µM.
For `NCc1cccc(NC(=O)c2cc(Cl)cc(-n3cccc3)c2)c1`, the CC50 was greater than 50 µM in data set [3] (setting [4]), greater than 50 µM in data set [1] and 25.7 µM in data set [2]. For the same molecule, the CC10 in data set [3] (veroe6/tmprss2) is greater than 50 µM.
In the case of `NCc1cccc(NC(=O)[C@H](NC(=O)OCc2ccccc2)C2CCC(c3ccccc3)CC2)c1` (some centres not stated), the CC50 in data set [1] came to 11.5 µM; in data set [2], 4.58 µM.
With `NCc1cccc(NC(=O)c2cc(Cl)cc3c2cnn3CC2CC2)c1`, the figures for the 50% cytotoxic concentration (CC50) in data set [1] and in data set [2] were 24.1 µM and 20.7 µM, respectively.
On the same counts, the results for `NCc1cccc(NC(=O)[C@H](NC(=O)OCc2ccccc2)c2ccc(Br)c(Cl)c2)c1` are 13.4 µM and 10 µM.
Consider `O=C(Nc1cc(Cl)cc(C(=O)Nc2ccc3c(c2)CNCC3)c1)OCc1ccccc1`, for which the CC50 in data set [1] stood at 3.27 µM; in data set [2], 2.85 µM.
In the case of `CC(C)Cc1nc2c(C(=O)Nc3ccc4c(c3)CNC4)cc(Br)cc2[nH]1`, the CC50 in data set [3] (setting [4]) is 20.9 µM; in data set [1] it was 0.864 µM; in data set [2], 0.623 µM. Also, the CC10 in data set [3] (veroe6/tmprss2) worked out at 0.569 µM.
Consider `O=C(Nc1ccc2c(c1)CNC2)c1cc(Br)cc2[nH]c(-c3ccccc3)nc12`, for which the CC50 was 14.3 µM in data set [3] (setting [4]), 3.3 µM in data set [1] and 10.7 µM in data set [2]. The CC10 in data set [3] (veroe6/tmprss2) came to 0.098 µM.
In the case of `O=C(Nc1ccc2c(c1)CNC2)c1cc(Cl)cc(-n2cccc2)c1`, the half-maximal cytotoxic concentration (CC50) in data set [3] (setting [4]) was 46.4 µM; in data set [3] (veroe6/tmprss2), 34.8 µM; in data set [1], greater than 50 µM; in data set [2], greater than 50 µM. Further, the CC10 in data set [3] (veroe6/tmprss2) is 17.502 µM and 9.003 µM.
`NCc1cccc(NC(=O)c2cc(Cl)cc(C(N)=O)c2)c1`: the CC50 in data set [1] and in data set [2] was greater than 50 µM throughout.
Consider `O=C(Nc1cc(Cl)cc(C(=O)NCc2ccc(-c3nnn[nH]3)cc2)c1)OCc1ccccc1`, for which the CC50 is greater than 50 µM in data set [3] (setting [4]), 3.21 µM in data set [1] and greater than 50 µM in data set [2]. Further, the CC10 in data set [3] (veroe6/tmprss2) was greater than 50 µM.
As to `CCc1nc2c(C(=O)Nc3ccc4c(c3)CNC4)cc(Br)cc2[nH]1`, the CC50 is 33.5 µM in data set [3] (setting [4]), greater than 50 µM in data set [1] and greater than 50 µM in data set [2]. In addition, the CC10 in data set [3] (veroe6/tmprss2) is 0.32 µM.
`O=C(Nc1ccc2c(c1)CNCCC2)c1cc(Cl)cc2[nH]ncc12`: the cytotoxic concentration (CC50) was greater than 50 µM in data set [3] (setting [4]), 2.18 µM in data set [1] and 1.42 µM in data set [2]. Further, the CC10 in data set [3] (veroe6/tmprss2) is less than 0.023 µM.
With `NCc1cc(NC(=O)c2cc(Cl)cc(NC(=O)OCc3ccccc3)c2)cc([C@@H]2C[C@H]2C(=O)O)c1`, the values for the CC50 in data set [1] and in data set [2] were 21.8 µM and 9.99 µM, respectively.
In the case of `N#C[C@H](Nc1ccc2c(c1)CNC2)c1cc(Cl)cc2[nH]ncc12`, the CC50 in data set [3] (setting [4]) and in data set [2] was greater than 50 µM throughout. Also, the CC10 in data set [3] (veroe6/tmprss2) was greater than 50 µM.
Turning to `CNC(=O)[C@H](Nc1cc(CN)cc(C(=O)O)c1)c1cc(Cl)cc(NC(=O)OCc2ccccc2)c1`, the CC50 in data set [1] and in data set [2] was greater than 50 µM each time.
As for `CCNC(=O)Nc1cc(Cl)cc(C(=O)Nc2ccc3c(c2)CNCCO3)c1`, the CC50 was 35.3 µM in data set [1] and greater than 50 µM in data set [2].
For `O=C(Nc1cc(Cl)cc([C@H]2C[C@@H]2c2cccc(C3CCNCC3)c2)c1)OCc1ccccc1`, the CC50 amounted to 3.44 µM in data set [1] and 1.23 µM in data set [2].
As to `O=C(Nc1ccc(C2CNC2)cc1)c1cc(Cl)cc2[nH]ncc12`, the CC50 in data set [1] and in data set [2] was greater than 50 µM each time.
As for `C=CC[C@H](Nc1cc(Cl)cc(NC(=O)OCc2ccccc2)c1)c1ccc(-c2nn[nH]n2)cc1`, the results for the CC50 in data set [1] and in data set [2] were 7.62 µM and 14.6 µM, respectively.
On to `OCC#C[C@H](Nc1ccc2c(c1)CNC2)c1cc(Cl)cc2[nH]ncc12`, for which the CC50 in data set [1] and in data set [2] was greater than 50 µM in each case.
`O=C(Nc1cc(Cl)cc(C(=O)Nc2cccc(C3CCNCC3)c2)c1)OCc1ccccc1`: the CC50 is greater than 10 µM in data set [3] (setting [4]), 13.5 µM in data set [3] (veroe6/tmprss2), 11.8 µM in data set [1] and 5.29 µM in data set [2].
As for `CCNC(=O)Nc1cc(Cl)cc(C(=O)Nc2cccc(CN)c2)c1`, the CC50 in data set [1] and in data set [2] was greater than 50 µM each time.
In the case of `N#C[C@H](Nc1cncc(-c2nn[nH]n2)c1)c1cc(Cl)cc(NC(=O)OCc2ccccc2)c1`, in data set [2], the CC50 is greater than 50 µM.
Same read-out and setting: next, `O=C(Nc1cccc(-c2nnn[nH]2)c1)c1cc(Cl)cc2[nH]ncc12`: greater than 50 µM; `O=C(Nc1ccc2c(c1)CNC2)c1cc(Br)cc2c1OCO2`: 23 µM.
For the molecule `O=C(Nc1cc(Cl)cc([C@H]2CN(Cc3ccccc3)C[C@@H]2c2cccc(-c3nn[nH]n3)c2)c1)OCc1ccccc1`, the CC50 in data set [3] (setting [4]) is greater than 50 µM; in data set [1] it was 12.3 µM; in data set [2], 12.5 µM. Moreover, the CC10 in data set [3] (veroe6/tmprss2) was 34.224 µM.
Consider `O=C(Nc1cc(Cl)cc(-c2ccc3[nH]nc(C(=O)O)c3c2)c1)OCc1ccccc1`, for which the CC50 in data set [1] is 13.6 µM; in data set [2], greater than 50 µM.
Regarding `O=C(Nc1ccc2c(c1)CNC2)c1cc(Cl)cc(C2CC2)c1`, the CC50 in data set [3] (setting [4]) was greater than 50 µM; in data set [1] it was 11.2 µM; in data set [2], 10.5 µM. Also, the CC10 in data set [3] (veroe6/tmprss2) turned out to be 0.136 µM.
With `O=C(Nc1ccc2c(c1)CNC2)c1cc(Br)cc2[nH]c(Cc3ccccc3)nc12`, the figures for the CC50 in data set [3] (setting [4]), in data set [1] and in data set [2] were 16.5 µM, 9.98 µM and 11.6 µM, respectively. In data set [3] (veroe6/tmprss2), the CC10 is 0.199 µM.
For the molecule `CCCNC(=O)[C@H](Nc1cccc(-c2nn[nH]n2)c1)c1cc(Cl)cc(NC(=O)OCc2ccccc2)c1`, the CC50 in data set [1] and in data set [2] was greater than 50 µM throughout.
As for `C=CC[C@H](Nc1ccc(-c2nn[nH]n2)cc1)c1cc(Cl)cc(NC(=O)OCc2ccccc2)c1`, the CC50 in data set [1] is 10.7 µM; in data set [2], 46.2 µM.
As for `NCc1cccc(CCc2cc(Cl)cc(NC(=O)OCc3ccccc3)c2)c1`, the figures for the CC50 in data set [3] (setting [4]), in data set [1] and in data set [2] were 29.7 µM, 11.9 µM and 5.46 µM, respectively. The CC10 in data set [3] (veroe6/tmprss2) was found to be 2.058 µM.
